Source: patent publication US10071089B2 (Euro-Celtique S.A., priority 2013, dated 2018)

How the values were obtained:
[1] = tested on: male C57BL/6 RAG1-/- knockout mice; experiment: Charcoal test of intestinal motility (GI transit); format: in vivo; conditions: charcoal meal; oral gavage three times a day for 7 days and once on 8th day; Oxy 10 mg/kg, Oxy/Nal 10/5.0 mg/kg
Protocol: Male mice of the strain C57BL/6 RAG −/− (Taconic Model 4175-M, Taconic Laboratories) with an approximal weight at arrival of 20±7 g at an approximal age of 5 to 10 weeks were used in the present study.
The formulations were prepared on Day 0 and used for Day 1 to Day 8 dosing. Sterile water was used as vehicle. Each of the two dose formulations was transferred into eight individual sterile vials through sterilization filters, one designated for each day of dosing. The dose formulations were stored refrigerated and protected from light.
Animals were administered the dose by oral gavage three times a day (˜4 hours apart) for 7 days and once on the 8th day. Prior to the first dose administration of the day, the dose formulation vials designated for that day were removed from the refrigerator, briefly mixed, and allowed to come to room temperature, where the vials remained throughout the day. After the third dose on day 7, all animals fasted through euthanasia. The dose volume was based on the animal's body weight on Day 1. Dose volume was recorded. […]
Thirty minutes after charcoal delivery, animals were euthanized by an overdose of CO2. […] Its full length and the length of charcoal meal traveled were measured in centimeters. Intestinal transit was expressed as the percentage of intestine length containing the meal, i.e. 100×(pylorus to meal front/pylorus to caecum length). […]

[2] = Body weights over 7 days of dosing; format: in vivo, mice; conditions: 10 mg/kg oxycodone or 10 mg/kg oxycodone/5 mg/kg naloxone, oral gavage
Protocol: Animals were administered the dose by oral gavage three times a day (˜4 hours apart) for 7 days and once on the 8th day. Prior to the first dose administration of the day, the dose formulation vials designated for that day were removed from the refrigerator, briefly mixed, and allowed to come to room temperature, where the vials remained throughout the day. After the third dose on day 7, all animals fasted through euthanasia. The dose volume was based on the animal's body weight on Day 1. Dose volume was recorded.
Individual body weights were recorded prior to administration of the first dose on Day 1. The body weight determinations prior to Day 1 dose administration was used to determine the dose administered for all subsequent doses. Subsequent body weights were recorded daily after the 2nd dose of the day on Days 2 through 7.

[3] = tested on: bacteria in the mesenteric lymph nodes; experiment: Colony forming units in mesenteric lymph nodes (bacterial translocation); format: in vivo, mice; conditions: blood and BHI agar; aerobic, anaerobic, CO2; G6 oxycodone, G7 oxycodone/naloxone
Protocol: Following euthanasia, the abdomen was opened. The mesenteric root was presented and the mesenteric net unfolded. The mesenteric lymph nodes (MLNs) were removed and surrounding fat was removed. The MLNs were then weighed into sterilized tubes. Following weighing, the MLNs were frozen in liquid nitrogen. Following freezing, the MLNs were placed on dry ice prior to storage in a −70° C. freezer […].
MLNs were obtained as indicated above and the amount of bacteria in the MLNs was analyzed by determining colony forming units (CFUs) per g MLN in different media and under different conditions as indicated in FIG. 7. Contaminated samples were not taken into account (contaminated samples in the different groups: 1 in G1, 1 in G3, 2 in G6 and 3 in G7). The statistical analysis was performed using one way ANCOVA.

[4] = tested on: bacteria of different phyla in the small intestine; experiment: Analysis of the contents of the small intestine (bacterial phyla)
Protocol: (§1) The small intestine, caecum, and colon were cut longitudinally. The contents of each were individually collected into separate containers with a small spatula or similar instrument, taking care to cause as little injury to the tissue as possible. The weight of the contents collected from each portion was recorded. The weights of the small intestine, caecum, and colon following removal of the contents were also recorded. Collected luminal contents samples were then frozen in liquid nitrogen. Luminal contents samples were then placed on dry ice before transfer to a −80° C. freezer.
The contents of the small intestine of the different groups were obtained as described above.

[5] = tested on: bacteria of different phyla in the colon; experiment: Analysis of the colon contents (bacterial phyla); conditions: phylum levels, FIG. 9; G1 untreated, G3 vehicle, G6, G7
Protocol: as §1

[6] = small intestine, n=7 for G6, n=4 for G7

In the case of `COc1ccc2c3c1O[C@H]1C(=O)CC[C@@]4(O)[C@@H](C2)N(C)CC[C@]314` [oxycodone], the “reduction of GI transit compared to vehicle” value [1] is reported as 67%, the “average percentage body weight loss” value [2] is reported as 4.17% and the “CFUs in MLNs (bacterial translocation into mesenteric lymph nodes)” value [3] is reported as “Increased CFUs”. The “bacterioides in small intestine, G6-group compared to G7-group” value ([4]; phylum levels, FIG. 8) was “clear decrease”, the “proteobacteria in small intestine, G6-group compared to G7-group” value ([4]; phylum levels, FIG. 8) was “clear increase” and the “mice with completely (dramatically) altered small intestine microbiome composition” value [4, 6] was 2/7. The “mice with pathogenic populations such as proteobacteria in small intestine” value [4, 6] was 5/7 and the “proteobacteria in colon compared to the remaining groups” value [5] was “increase”.
